Test: Donor sample analysis by chiral LC/MS/MS (oral fluid)
Assay type: in vivo
Description: HPLC conditions were adapted from a separation method posted on the manufacturer's website (Sigma-Aldrich) using UV detection. A Supelco Astec Chirobiotic® V2 chiral column (5 μm particle size, 2.1×250 mm) from Sigma-Aldrich was used to achieve the chiral separation of the enantiomers for amphetamine and methamphetamine. The Chirobiotic® V2 column employs vancomycin as the chiral stationary phase to induce separation. The mobile phase consisted of 99.89:0.1:0.01 methanol:acetic acid:ammonium hydroxide (v/v/v) with a flow rate of 0.5 mL/min. The column temperature was 30° C. The HPLC employed was a Shimadzu Nexera UPLC system (Kyoto, Japan) operating at typical HPLC pressures. The injection volume for the method was 5 μL.
Detection was performed by an API 4000 triple-quadrupole mass spectrometer from AB Sciex (Foster City, Calif., USA). Column eluent was introduced into the mass spectrometer using the Turbolonspray® source operating in the positive ionization mode. Multiple-reaction monitoring (MRM) was used to analyze and detect each compound with a high degree of selectivity. The ionspray voltage was set at 5000V and the source temperature was 550° C. Parameters such as declustering potential (DP), collision energy (CE) and entrance and exit potentials (EP and CXP) were optimized for each analyte. The total analysis time for the method is 10 minutes.
Sample extraction was accomplished by aliquoting 200 μL of oral fluid sample into a 16×75 mm culture tube and adding 50 μL of internal standard (200 ng/mL racemic D11-amphetamine and […]). The sample was then treated with 25 μL of 10% sodium periodate solution and allowed to sit for 30 minutes after mixing. A 500 μL aliquot of 0.1 M phosphoric acid was added to each sample and mixed prior to transfer to the SPE wells.
The Agilent SPEC-DAU 96-well SPE plate was conditioned with 1 mL of methanol followed by 0.5 mL of 0.1 M phosphoric acid. Nitrogen gas was used to apply positive pressure for all SPE steps to induce a flow rate of about 1 to 2 mL per minute. […]
Several donor samples have been analyzed by this method. […]

With CN[C@@H](C)Cc1ccccc1 [d-Methamphetamine, d-methamphetamine] as the compound, how does the “% d-methamphetamine in samples containing methamphetamine” value (all donor samples containing methamphetamine) read?
Its value is > 90%.

For C[C@H](N)Cc1ccccc1 [d-Amphetamine, d-amphetamine], which “% d-amphetamine in samples containing amphetamine” value (9 out of 25 donor samples, consistent with Adderall use) is on record?
The value was “approximately 70%”.

And the “% d-amphetamine in samples containing amphetamine” value (the remaining donor samples)?
Its value is 100%.

Reference: patent US20130177994A1, “METHODS FOR QU[…] DETERMINATION OF THE d- AND l- ENANTIOMERS OF AMPHETAMINE AND METHAMPHETAMINE” (CLINICAL REFERENCE LABORATORY, INC., priority 2012, published 2013)
